Measurements from the supplement of paper PMC13380429.

What was measured:
Settings in all cases: 72 h
[1] = system: Caco-2; assay: cell viability relative to DMSO; higher = less toxic
[2] = system: Calu-3; assay: as above
[3] = system: HepG2; assay: as above
[4] = system: U2OS; assay: as above
[5] = system: Vero E6; assay: as above
[6] = system: Caco-2; assay: relative viability EC50 (midpoint between 100% and the lowest measured viability); higher = less toxic
[7] = system: Calu-3; assay: as above
[8] = system: HepG2; assay: as above
[9] = system: U2OS; assay: as above
[10] = system: Vero E6; assay: as above
[11] = system: Caco-2; assay: drug sensitivity score (DSS) for viability; higher = more toxic; extreme values may be limits of the assay
[12] = system: Calu-3; assay: as above
[13] = system: HepG2; assay: as above
[14] = system: U2OS; assay: as above
[15] = system: Vero E6; assay: as above

Row | SMILES | cell viability ([1]; 1 nM) | cell viability ([1]; 10 nM) | cell viability ([1]; 100 nM) | cell viability ([1]; 1000 nM) | cell viability ([1]; 10000 nM) | cell viability ([2]; 1 nM) | cell viability ([2]; 10 nM) | cell viability ([2]; 100 nM) | cell viability ([2]; 1000 nM) | cell viability ([2]; 10000 nM) | cell viability ([3]; 1 nM) | cell viability ([3]; 10 nM) | cell viability ([3]; 100 nM) | cell viability ([3]; 1000 nM) | cell viability ([3]; 10000 nM) | cell viability ([4]; 1 nM) | cell viability ([4]; 10 nM) | cell viability ([4]; 100 nM) | cell viability ([4]; 1000 nM) | cell viability ([4]; 10000 nM) | cell viability ([5]; 1 nM) | cell viability ([5]; 10 nM) | cell viability ([5]; 100 nM) | cell viability ([5]; 1000 nM) | cell viability ([5]; 10000 nM) | relative viability EC50 [6] | relative viability EC50 [7] | relative viability EC50 [8] | relative viability EC50 [9] | relative viability EC50 [10] | drug sensitivity score [11] | drug sensitivity score [12] | drug sensitivity score [13] | drug sensitivity score [14] | drug sensitivity score [15]
1 | O=C(O)CNC(=O)C(CS)Cc1ccccc1 (stereo not given) [thiorphan] | 107% | 99% | 86.2% | 102% | 110% | 103% | 99.5% | 98.6% | 95.5% | 114% | 94.2% | 90.9% | 99.7% | 92.1% | 95.7% | 99.4% | 103% | 98.7% | 98.7% | 96.9% | 107% | 95% | 94.3% | 101% | 104% | > 10 µM | > 10 µM | > 10 µM | > 10 µM | > 10 µM | 0 | 0 | 0 | 0 | 0
2 | CC(CC(C(N)=O)(c1ccccc1)c1ccccc1)N(C)C (stereo not given) [aminopentamide] | 95.3% | 90.2% | 97.1% | 92.8% | 98% | 110% | 97.8% | 104% | 92.2% | 98.9% | 100% | 99.6% | 95.2% | 103% | 104% | 95.8% | 94.9% | 101% | 101% | 101% | 95.9% | 96.1% | 91.5% | 98.3% | 104% | > 10 µM | > 10 µM | > 10 µM | > 10 µM | > 10 µM | 0 | 0 | 0 | 0 | 0
3 | C[C@@H](O[C@H]1OCCN(Cc2nn(P(=O)(O)O)c(=O)[nH]2)[C@H]1c1ccc(F)cc1)c1cc(C(F)(F)F)cc(C(F)(F)F)c1 [fosaprepitant-dimeglumine] | 98.4% | 95.1% | 93.2% | 102% | 90.8% | 99.7% | 93.8% | 102% | 93.8% | 108% | 93.6% | 93.4% | 88.7% | 91.9% | 89.6% | 98.6% | 103% | 95.4% | 96.1% | 86.4% | 92.5% | 97.3% | 97.9% | 99.6% | 99.7% | > 10 µM | > 10 µM | > 10 µM | > 10 µM | > 10 µM | 0 | 0 | 0.1 | 0.1 | 0
4 | CCOC(=O)Nc1nc2ccccc2[nH]1 [lobendazole] | 97.9% | 91.6% | 96.4% | 109% | 95.5% | 100% | 106% | 102% | 98.4% | 95.9% | 94.6% | 113% | 104% | 111% | 98.9% | 97.1% | 96.1% | 98.2% | 94.8% | 99.7% | 96.9% | 101% | 87.6% | 103% | 103% | > 10 µM | > 10 µM | > 10 µM | > 10 µM | > 10 µM | 0 | 0 | 0 | 0 | 0
5 | CC[C@@H](C)c1ccc(NC(=O)Cn2cnc3c2c(=O)n(C)c(=O)n3C)cc1 (racemic) | 98.5% | 90.1% | 89.8% | 97.3% | 92.5% | 99.4% | 100% | 98.6% | 99% | 95.6% | 95.9% | 100% | 96.6% | 100% | 93.4% | 98.6% | 97.1% | 98.3% | 96.9% | 98.6% | 96% | 98.3% | 92.6% | 94% | 106% | > 10 µM | > 10 µM | > 10 µM | > 10 µM | > 10 µM | 0 | 0 | 0 | 0 | 0
6 | CC(C)C(=O)c1c(C(C)C)nn2ccccc12 [ibudilast] | 91.2% | 89.9% | 93.3% | 102% | 107% | 95.7% | 94.1% | 93% | 104% | 107% | 94.5% | 101% | 109% | 88.8% | 99.2% | 94.6% | 102% | 97.4% | 104% | 104% | 96.8% | 97.4% | 98.9% | 94.7% | 103% | > 10 µM | > 10 µM | > 10 µM | > 10 µM | > 10 µM | 0 | 0 | 0 | 0 | 0
7 | CC(=O)NCC(=O)N[C@H](CCC(=O)O)C(=O)O [N-acetylglycyl-D-glutamic-acid] | 91.3% | 104% | 93% | 103% | 101% | 94.5% | 106% | 98% | 93% | 95.7% | 110% | 95.7% | 98.6% | 102% | 100% | 102% | 102% | 97.7% | 102% | 99.4% | 109% | 99.9% | 103% | 97% | 99.6% | > 10 µM | > 10 µM | > 10 µM | > 10 µM | > 10 µM | 0 | 0 | 0 | 0 | 0
